# Test results reported in ChEMBL document CHEMBL3885881, “DrugMatrix”.
# Species on record: Rattus norvegicus
# Assay: DrugMatrix - Regimen: Daily Repeat
# Type: toxicity, organism-based, Sprague-Dawley
# Parameters: regimen Daily Repeat, gender Male, age 6-8 weeks
# Details: in vivo, po, route oral GAVAGE, vehicle 100 % WATER; for ABSOLUTE BASOPHIL / ABSOLUTE EOSINOPHIL / ABSOLUTE LYMPHOCYTE / ABSOLUTE MONOCYTE / ABSOLUTE SEGMENTED NEUTROPHIL / BASOPHIL / EOSINOPHIL / ERYTHROCYTE COUNT / HEMATOCRIT / HEMOGLOBIN / LEUKOCYTE COUNT / LYMPHOCYTE / MEAN CORPUSCULAR HEMOGLOBIN / MEAN CORPUSCULAR HEMOGLOBIN CONCENTRATION / MEAN CORPUSCULAR VOLUME / MONOCYTE / NEUTROPHIL / NUCLEATED RED BLOOD CELLS / PLATELET COUNT: tissue Blood; for ALANINE AMINOTRANSFERASE / ALBUMIN / ALKALINE PHOSPHATASE / ASPARTATE AMINOTRANSFERASE / BLOOD UREA NITROGEN / CARBON DIOXIDE / CHLORIDE / CHOLESTEROL / CREATINE PHOSPHOKINASE / CREATININE / GLUCOSE / LACTATE DEHYDROGENASE / LIPASE / PHOSPHORUS / POTASSIUM / SODIUM / TOTAL BILIRUBIN / TOTAL PROTEIN / URIC ACID: tissue Plasma
# [1] = 46 mg/kg, 72 h, dose level High, time 3 day
# [2] = 46 mg/kg, 120 h, dose level High, time 5 day
# [3] = […], 72 h, dose 4.6 mg/Kg, dose level Low, time 3 day
# [4] = […], 120 h, dose 4.6 mg/Kg, dose level Low, time 5 day
compound,measurement,setting,value
CC(C)NNC(=O)c1ccncc1 [IPRONIAZID],ABSOLUTE BASOPHIL,[1],0 CELLS/uL
same,ABSOLUTE EOSINOPHIL,[1],0 CELLS/uL
same,ABSOLUTE LYMPHOCYTE,[1],9249.33 CELLS/uL
same,ABSOLUTE MONOCYTE,[1],21.67 CELLS/uL
same,ABSOLUTE SEGMENTED NEUTROPHIL,[1],762.33 CELLS/uL
same,BASOPHIL,[1],0%
same,EOSINOPHIL,[1],0%
same,ERYTHROCYTE COUNT,[1],5.56 x10E6/uL
same,HEMATOCRIT,[1],34.37%
same,HEMOGLOBIN,[1],13.47 G/DL
same,LEUKOCYTE COUNT,[1],10.03 x10E3/uL
same,LYMPHOCYTE,[1],91.33%
same,MEAN CORPUSCULAR HEMOGLOBIN,[1],24.27 pg
same,MEAN CORPUSCULAR HEMOGLOBIN CONCENTRATION,[1],39.17 G/DL
same,MEAN CORPUSCULAR VOLUME,[1],61.87 fL
same,MONOCYTE,[1],0.33%
same,NEUTROPHIL,[1],8.33%
same,NUCLEATED RED BLOOD CELLS,[1],0 /100WBC
same,PLATELET COUNT,[1],1304.67 x10E3/uL
same,ALANINE AMINOTRANSFERASE,[1],37 u/L
same,ALBUMIN,[1],4.23 G/DL
same,ALKALINE PHOSPHATASE,[1],308 u/L
same,ASPARTATE AMINOTRANSFERASE,[1],89 u/L
same,BLOOD UREA NITROGEN,[1],17 mg/dL
same,CARBON DIOXIDE,[1],29 mmol/L
same,CHLORIDE,[1],103 MEQ/L
same,CHOLESTEROL,[1],80.67 mg/dL
same,CREATINE PHOSPHOKINASE,[1],622.67 u/L
same,CREATININE,[1],0.21 mg/dL
same,GLUCOSE,[1],160.67 mg/dL
same,LACTATE DEHYDROGENASE,[1],288.33 u/L
same,LIPASE,[1],11.67 u/L
same,PHOSPHORUS,[1],12.93 mg/dL
same,POTASSIUM,[1],6.22 MEQ/L
same,SODIUM,[1],145.5 MEQ/L
same,TOTAL BILIRUBIN,[1],0.17 mg/dL
same,TOTAL PROTEIN,[1],5.97 G/DL
same,URIC ACID,[1],1.77 mg/dL
same,ABSOLUTE BASOPHIL,[2],0 CELLS/uL
same,ABSOLUTE EOSINOPHIL,[2],126 CELLS/uL
same,ABSOLUTE LYMPHOCYTE,[2],15175.33 CELLS/uL
same,ABSOLUTE MONOCYTE,[2],93.67 CELLS/uL
same,ABSOLUTE SEGMENTED NEUTROPHIL,[2],271.67 CELLS/uL
same,BASOPHIL,[2],0%
same,EOSINOPHIL,[2],0.67%
same,ERYTHROCYTE COUNT,[2],5.63 x10E6/uL
same,HEMATOCRIT,[2],33.73%
same,HEMOGLOBIN,[2],13.4 G/DL
same,LEUKOCYTE COUNT,[2],15.67 x10E3/uL
same,LYMPHOCYTE,[2],97%
same,MEAN CORPUSCULAR HEMOGLOBIN,[2],23.8 pg
same,MEAN CORPUSCULAR HEMOGLOBIN CONCENTRATION,[2],39.77 G/DL
same,MEAN CORPUSCULAR VOLUME,[2],59.8 fL
same,MONOCYTE,[2],0.67%
same,NEUTROPHIL,[2],1.67%
same,NUCLEATED RED BLOOD CELLS,[2],0 /100WBC
same,PLATELET COUNT,[2],1219.33 x10E3/uL
same,ALANINE AMINOTRANSFERASE,[2],39 u/L
same,ALBUMIN,[2],3.87 G/DL
same,ALKALINE PHOSPHATASE,[2],312.33 u/L
same,ASPARTATE AMINOTRANSFERASE,[2],118.33 u/L
same,BLOOD UREA NITROGEN,[2],18.67 mg/dL
same,CARBON DIOXIDE,[2],22 mmol/L
same,CHLORIDE,[2],106.67 MEQ/L
same,CHOLESTEROL,[2],56 mg/dL
same,CREATINE PHOSPHOKINASE,[2],1266.33 u/L
same,CREATININE,[2],0.24 mg/dL
same,GLUCOSE,[2],163.67 mg/dL
same,LACTATE DEHYDROGENASE,[2],328.67 u/L
same,LIPASE,[2],10 u/L
same,PHOSPHORUS,[2],11.83 mg/dL
same,POTASSIUM,[2],5.65 MEQ/L
same,SODIUM,[2],148.8 MEQ/L
same,TOTAL BILIRUBIN,[2],0.23 mg/dL
same,TOTAL PROTEIN,[2],5.53 G/DL
same,URIC ACID,[2],1.8 mg/dL
same,ABSOLUTE BASOPHIL,[3],0 CELLS/uL
same,ABSOLUTE EOSINOPHIL,[3],0 CELLS/uL
same,ABSOLUTE LYMPHOCYTE,[3],11668 CELLS/uL
same,ABSOLUTE MONOCYTE,[3],117.67 CELLS/uL
same,ABSOLUTE SEGMENTED NEUTROPHIL,[3],1081 CELLS/uL
same,BASOPHIL,[3],0%
same,EOSINOPHIL,[3],0%
same,ERYTHROCYTE COUNT,[3],4.84 x10E6/uL
same,HEMATOCRIT,[3],31.5%
same,HEMOGLOBIN,[3],12.83 G/DL
same,LEUKOCYTE COUNT,[3],12.87 x10E3/uL
same,LYMPHOCYTE,[3],90.33%
same,MEAN CORPUSCULAR HEMOGLOBIN,[3],26.5 pg
same,MEAN CORPUSCULAR HEMOGLOBIN CONCENTRATION,[3],40.77 G/DL
same,MEAN CORPUSCULAR VOLUME,[3],65 fL
same,MONOCYTE,[3],1%
same,NEUTROPHIL,[3],8.67%
same,NUCLEATED RED BLOOD CELLS,[3],0 /100WBC
same,PLATELET COUNT,[3],1111.67 x10E3/uL
same,ALANINE AMINOTRANSFERASE,[3],56 u/L
same,ALBUMIN,[3],4.23 G/DL
same,ALKALINE PHOSPHATASE,[3],342.67 u/L
same,ASPARTATE AMINOTRANSFERASE,[3],108 u/L
same,BLOOD UREA NITROGEN,[3],13.67 mg/dL
same,CARBON DIOXIDE,[3],26.33 mmol/L
same,CHLORIDE,[3],105 MEQ/L
same,CHOLESTEROL,[3],80.67 mg/dL
same,CREATINE PHOSPHOKINASE,[3],777.33 u/L
same,CREATININE,[3],0.24 mg/dL
same,GLUCOSE,[3],165.67 mg/dL
same,LACTATE DEHYDROGENASE,[3],493.33 u/L
same,LIPASE,[3],8.33 u/L
same,PHOSPHORUS,[3],13.3 mg/dL
same,POTASSIUM,[3],6.06 MEQ/L
same,SODIUM,[3],144.47 MEQ/L
same,TOTAL BILIRUBIN,[3],0.17 mg/dL
same,TOTAL PROTEIN,[3],5.67 G/DL
same,URIC ACID,[3],1.5 mg/dL
same,ABSOLUTE BASOPHIL,[4],0 CELLS/uL
same,ABSOLUTE EOSINOPHIL,[4],175.33 CELLS/uL
same,ABSOLUTE LYMPHOCYTE,[4],14127.33 CELLS/uL
same,ABSOLUTE MONOCYTE,[4],0 CELLS/uL
same,ABSOLUTE SEGMENTED NEUTROPHIL,[4],1364 CELLS/uL
same,BASOPHIL,[4],0%
same,EOSINOPHIL,[4],1%
same,ERYTHROCYTE COUNT,[4],5.43 x10E6/uL
same,HEMATOCRIT,[4],34.73%
same,HEMOGLOBIN,[4],13.6 G/DL
same,LEUKOCYTE COUNT,[4],15.67 x10E3/uL
same,LYMPHOCYTE,[4],90.33%
same,MEAN CORPUSCULAR HEMOGLOBIN,[4],25.07 pg
same,MEAN CORPUSCULAR HEMOGLOBIN CONCENTRATION,[4],39.17 G/DL
same,MEAN CORPUSCULAR VOLUME,[4],63.97 fL
same,MONOCYTE,[4],0%
same,NEUTROPHIL,[4],8.67%
same,NUCLEATED RED BLOOD CELLS,[4],0 /100WBC
same,PLATELET COUNT,[4],1364.67 x10E3/uL
same,ALANINE AMINOTRANSFERASE,[4],58.33 u/L
same,ALBUMIN,[4],4.33 G/DL
same,ALKALINE PHOSPHATASE,[4],411.67 u/L
same,ASPARTATE AMINOTRANSFERASE,[4],88.33 u/L
same,BLOOD UREA NITROGEN,[4],18.33 mg/dL
same,CARBON DIOXIDE,[4],27.33 mmol/L
same,CHLORIDE,[4],103 MEQ/L
same,CHOLESTEROL,[4],72 mg/dL
same,CREATINE PHOSPHOKINASE,[4],231.67 u/L
same,CREATININE,[4],0.23 mg/dL
same,GLUCOSE,[4],179 mg/dL
same,LACTATE DEHYDROGENASE,[4],197.33 u/L
same,LIPASE,[4],11 u/L
same,PHOSPHORUS,[4],14.8 mg/dL
same,POTASSIUM,[4],6.06 MEQ/L
same,SODIUM,[4],146.8 MEQ/L
same,TOTAL BILIRUBIN,[4],0.2 mg/dL
same,TOTAL PROTEIN,[4],6.07 G/DL
same,URIC ACID,[4],2.07 mg/dL
